IC50 data for 1 substance are collected here from PMC5869686 (Journal of the American Chemical Society, 2018).

As a reminder, the IC50 is the concentration that gives 50% inhibition. Low readings indicate greater potency, high ones weaker potency.

This assay concerns the target succinate dehydrogenase (mitochondrial Sdh, complex II) (Bos taurus, UniProt P35720+Q3T189+Q95123). Description: colorimetric mitochondrial complex II activity assay. It is filed as biochemical.

Chain of succinate dehydrogenase (mitochondrial Sdh, complex II) (P35720 30-169): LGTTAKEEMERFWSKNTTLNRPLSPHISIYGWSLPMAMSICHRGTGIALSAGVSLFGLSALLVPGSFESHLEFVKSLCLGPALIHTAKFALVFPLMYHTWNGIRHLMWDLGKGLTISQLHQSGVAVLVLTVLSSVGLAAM
Chain of succinate dehydrogenase (mitochondrial Sdh, complex II) (Q3T189 29-280): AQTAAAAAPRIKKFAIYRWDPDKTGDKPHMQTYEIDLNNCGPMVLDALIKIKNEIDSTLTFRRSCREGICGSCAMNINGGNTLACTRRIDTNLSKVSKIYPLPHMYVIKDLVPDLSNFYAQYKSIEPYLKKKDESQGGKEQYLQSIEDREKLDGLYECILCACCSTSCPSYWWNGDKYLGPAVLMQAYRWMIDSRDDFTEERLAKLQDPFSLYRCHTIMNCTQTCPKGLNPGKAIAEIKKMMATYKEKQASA
Chain of succinate dehydrogenase (mitochondrial Sdh, complex II) (Q95123 56-158): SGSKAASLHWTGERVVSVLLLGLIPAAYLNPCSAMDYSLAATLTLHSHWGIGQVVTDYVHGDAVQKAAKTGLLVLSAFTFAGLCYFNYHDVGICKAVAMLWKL
Chain of succinate dehydrogenase (mitochondrial Sdh, complex II) (P31039 44-665 partner): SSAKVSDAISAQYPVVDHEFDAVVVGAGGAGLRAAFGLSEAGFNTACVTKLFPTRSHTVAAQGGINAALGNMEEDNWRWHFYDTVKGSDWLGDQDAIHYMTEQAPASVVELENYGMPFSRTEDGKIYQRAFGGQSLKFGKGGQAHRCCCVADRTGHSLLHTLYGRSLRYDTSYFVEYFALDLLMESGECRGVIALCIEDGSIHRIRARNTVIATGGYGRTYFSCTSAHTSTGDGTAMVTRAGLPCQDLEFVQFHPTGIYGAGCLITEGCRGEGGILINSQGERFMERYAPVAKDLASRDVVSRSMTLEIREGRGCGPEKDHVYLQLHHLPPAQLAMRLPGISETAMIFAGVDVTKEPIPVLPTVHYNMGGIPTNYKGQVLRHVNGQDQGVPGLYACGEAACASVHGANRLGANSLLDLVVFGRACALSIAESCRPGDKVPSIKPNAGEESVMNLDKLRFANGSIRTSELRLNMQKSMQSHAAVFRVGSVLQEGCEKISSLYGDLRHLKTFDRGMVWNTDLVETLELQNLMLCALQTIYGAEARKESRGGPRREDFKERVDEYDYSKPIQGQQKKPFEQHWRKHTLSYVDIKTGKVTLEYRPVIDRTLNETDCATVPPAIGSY

In the case of promysalin [(-)-1], the midpoint of inhibition, the IC50, lay at 2500 nM.
